PMC12396409, “Screening and hit evaluation of a microbial metabolite library against the pathogenic Plasmodium falciparum and Toxoplasma gondii parasites” (International Journal for Parasitology: Drugs and Drug …, 2025)
Read-outs that look alike come from different tables or passages of the source.

Columns and labels:
[1] = tested on: P. falciparum 3D7 parasites; test: P. falciparum growth inhibition assay, 1-cycle (72 h treatment), SYBR DNA staining (library screen at 2 μg/mL and dose-response); type: cell-based, Plasmodium falciparum; details: 72 h; for activity at 2 µg/mL: Plasmodium falciparum
[2] = tested on: P. falciparum 3D7 parasites; test: P. falciparum growth inhibition assay, 2-cycle (120 h treatment), delayed-death screen and dose-response; type: cell-based, Plasmodium falciparum; details: 120 h; for activity at 2 µg/mL: Plasmodium falciparum
[3] = tested on: T. gondii RH strain (RH-Tub-eYFP) tachyzoites; test: microbe, parasite or virus in culture; type: cell-based, Toxoplasma gondii
[4] = P. falciparum, screen at 2 μg/mL, replicate 1
[5] = P. falciparum, screen at 2 μg/mL, replicate 2
[6] = T. gondii, 72 h, screen at 2 μg/mL, replicate 1
[7] = T. gondii, 72 h, screen at 2 μg/mL, replicate 2
[8] = library screen at 2 μg/mL, % growth, replicate 1
[9] = library screen at 2 μg/mL, % growth, replicate 2
[10] = library screen at 2 μg/mL, 72 h, % growth, replicate 1
[11] = library screen at 2 μg/mL, 72 h, % growth, replicate 2

Compound | Pf_72h_%Growth_Rep1 [1, 4] [%] | Pf_72h_%Growth_Rep2 [1, 5] [%] | Pf_120h_%Growth_Rep1 [2, 4] [%] | Pf_120h_%Growth_Rep2 [2, 5] [%] | Tg_72h_%Growth_Rep1 [3, 6] [%] | Tg_72h_%Growth_Rep2 [3, 7] [%] | Pf_72h_%Growth_Rep1 [1, 8] [%] | Pf_72h_%Growth_Rep2 [1, 9] [%] | Pf_120h_%Growth_Rep1 [2, 8] [%] | Pf_120h_%Growth_Rep2 [2, 9] [%] | Tg_72h_%Growth_Rep1 [3, 10] [%] | Tg_72h_%Growth_Rep2 [3, 11] [%] | also measured
COc1cc(OC)c2c(OC)c3ccoc3nc2c1OC [Trimethoxydictamnine, 5,7,8-] | 85.08 | 101.79 | 91.88 | 81.51 | 134.56 | 84.32 |  |  |  |  |  |  | 
C=C1C(=O)O[C@H]2C(=O)O[C@H](CCCCCCCC)[C@@H]12 [Avenaciolide] |  |  |  |  |  |  | 79.34 | 78.44 | 53.72 | 80.39 | 102.05 | 95.83 | 
C[C@@H]1C[C@@H]([C@H](O)CC2CC(=O)NC(=O)C2)C(=O)[C@@H](C)C1 [cycloheximide, reference compound] |  |  |  |  |  |  |  |  |  |  |  |  | activity in the screen against P. falciparum ([1]; 2 μg/mL, active = ≥80 % growth inhibition): active; activity at 2 µg/mL ([1]; 3D7, P. falciparum, screen at 2 μg/mL, replicate 1, read-out: Pf_72h_%Growth_Rep1): 1.07%; activity at 2 µg/mL ([1]; 3D7, P. falciparum, screen at 2 μg/mL, replicate 2, read-out: Pf_72h_%Growth_Rep2): 4.34%; activity at 2 µg/mL ([2]; 3D7, P. falciparum, screen at 2 μg/mL, replicate 1, read-out: Pf_120h_%Growth_Rep1): 1.73%; activity at 2 µg/mL ([2]; 3D7, P. falciparum, screen at 2 μg/mL, replicate 2, read-out: Pf_120h_%Growth_Rep2): 0.69%; percent parasite growth at 2 µg/mL ([3]; Toxoplasma gondii; T. gondii, 72 h, screen at 2 μg/mL, replicate 1; read-out: Tg_72h_%Growth_Rep1): 7.84%; percent parasite growth at 2 µg/mL ([3]; Toxoplasma gondii; T. gondii, 72 h, screen at 2 μg/mL, replicate 2; read-out: Tg_72h_%Growth_Rep2): 1.95%
CO[C@@H]1[C@H](O)C[C@@H](O[C@@H]2C[C@H](Oc3cc4cc5c(c(O)c4c(O)c3C)C(=O)[C@@H](O[C@H]3C[C@@H](O[C@H]4C[C@@H](O[C@H]6C[C@](C)(O)[C@@H](OC(C)=O)[C@H](C)O6)[C@H](O)[C@@H](C)O4)[C@H](O)[C@@H](C)O3)[C@H]([C@H](OC)C(=O)[C@@H](O)[C@@H](C)O)C5)O[C@H](C)[C@@H]2OC(C)=O)O[C@@H]1C [Chromomycin A3] |  |  |  |  |  |  |  |  |  |  |  |  | activity at 2 µg/mL ([1]; 3D7, 72 h, P. falciparum, screen at 2 μg/mL, replicate 1, read-out: Pf_72h_%Growth_Rep1): -1.98%; activity at 2 µg/mL ([1]; 3D7, 72 h, P. falciparum, screen at 2 μg/mL, replicate 2, read-out: Pf_72h_%Growth_Rep2): 0.17%; activity at 2 µg/mL ([2]; 3D7, 120 h, P. falciparum, screen at 2 μg/mL, replicate 1, read-out: Pf_120h_%Growth_Rep1): 2.76%; activity at 2 µg/mL ([2]; 3D7, 120 h, P. falciparum, screen at 2 μg/mL, replicate 2, read-out: Pf_120h_%Growth_Rep2): -4.9%; percent parasite growth at 2 µg/mL ([3]; Toxoplasma gondii, 72 h, T. gondii, 72 h, screen at 2 μg/mL, replicate 1; read-out: Tg_72h_%Growth_Rep1): 1.51%; percent parasite growth at 2 µg/mL ([3]; Toxoplasma gondii, 72 h, T. gondii, 72 h, screen at 2 μg/mL, replicate 2; read-out: Tg_72h_%Growth_Rep2): 1.99%
CC(/C=C/C(=O)NO[C@@H]1O[C@H](CO)[C@@H](O)[C@H](O)[C@H]1O)=C\[C@@H](C)C(=O)c1ccc(N(C)C)cc1 [Trichostatin C] | 75.18 | 84.35 | 157.32 | 88.61 | 87.04 | 108.99 |  |  |  |  |  |  | 
CC[C@H]1OC(=O)[C@H](C)[C@@H](O[C@H]2C[C@@](C)(O)[C@@H](O)[C@H](C)O2)[C@H](C)[C@@H](O[C@@H]2O[C@H](C)C[C@H](N(C)C)[C@H]2O)[C@](C)(O)C[C@@H](C)C(=O)[C@H](C)[C@@H](O)[C@]1(C)O [Erythromycin C] |  |  |  |  |  |  | 81.84 | 74.13 | 93.33 | 77.67 | 45.84 | 43.52 | 
COc1cc(/C=N/O)nc(-c2ccccn2)c1 [Caerulomycin] | 5.29 | 5.34 | 2.50 | -6.36 | 2.08 | 0.20 |  |  |  |  |  |  | 
C=C[C@@H](CO)[C@H]1CCN2CCc3c([nH]c4ccccc34)[C@@H]2C1 [Anthirine] |  |  |  |  |  |  | 73.25 | 82.22 | 66.95 | 48.16 | 43.71 | 53.47 | 
CC(C)CCC[C@@H](C)[C@@H]1CC[C@]2(C)C3=C(CC[C@@]12C)[C@@]1(C)CC[C@H](O)C(C)(C)[C@@H]1CC3 [Dihydroeuphol] |  |  |  |  |  |  | 82.89 | 91.07 | 82.20 | 96.98 | 139.10 | 102.23 | 
